# Data: patent publication US20150274664A1 (MERCK SHARP & DOHME CORP., priority 2012, published 2015)
# Biological target: T1, human GPR119 (Homo sapiens, UniProt Q8TDV5)
# T1 construct: expressed in transfected cells; host or cells: HEK293
# T1 sequence (Q8TDV5 1-335): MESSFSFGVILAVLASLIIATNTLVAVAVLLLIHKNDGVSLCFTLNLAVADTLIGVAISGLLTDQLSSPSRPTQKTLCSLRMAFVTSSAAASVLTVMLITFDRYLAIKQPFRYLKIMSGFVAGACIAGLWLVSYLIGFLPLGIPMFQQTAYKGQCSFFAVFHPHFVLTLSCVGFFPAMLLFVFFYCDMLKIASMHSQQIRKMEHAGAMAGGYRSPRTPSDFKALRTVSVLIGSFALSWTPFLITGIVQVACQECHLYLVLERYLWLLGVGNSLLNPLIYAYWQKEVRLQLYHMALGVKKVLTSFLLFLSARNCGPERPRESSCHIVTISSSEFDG
# Assay: Measurement of GPR119 signaling using LANCE 384-well cAMP kit (LCMP assay)
# Format: cell-based
# Conditions: HEK293 cells stably transfected with human GPR119
# Procedure, shortened: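 HEK293 cells stably expressing human GPR119, in stimulation buffer at pH 7.4 with 100 μM phosphodiesterase inhibitors, exposed to a 10-point compound dilution (2.5% DMSO final) for 45 min. cAMP measured by LANCE TR-FRET at 665 nm against a cAMP standard curve, normalized between DMSO basal and an internal agonist maximum, with a 4-parameter fit.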
row,SMILES,EC50
1,"COCc1noc(N2CCC([C@H]3C[C@@H]3CCOc3cc(F)c(CC(=O)N(C)C)c(F)c3)CC2)n1 [Example 84, 2-(2,6-difluoro-4-(2-((1R,2R)-2-(1-(3-(methoxymethyl)-1,2,4-oxadiazol-5-yl)piperidin-4-yl)cyclopropyl)ethoxy)phenyl)-N,N-dimethylacetamide]",3 nM
2,"CC(C)c1noc(N2CCC([C@H]3C[C@@H]3CCOc3ccc(S(C)(=O)=O)cc3F)CC2)n1 [Example 85, 5-(4-((1R,2R)-2-(2-(2-fluoro-4-(methylsulfonyl)phenoxy)ethyl)cyclopropyl)piperidin-1-yl)-3-isopropyl-1,2,4-oxadiazole]",17 nM
3,"CC(C)c1noc(N2CCC([C@H]3C[C@@H]3CCOc3ccc(-n4cnnn4)c(F)c3)CC2)n1 [Example 86, 5-(4-((1R,2R)-2-(2-(3-fluoro-4-(1H-tetrazol-1-yl)phenoxy)ethyl)cyclopropyl)piperidin-1-yl)-3-isopropyl-1,2,4-oxadiazole]",13 nM
4,"CC(C)c1noc(N2CCC([C@H]3C[C@@H]3CCOc3ccc(S(C)(=O)=O)c(F)c3)CC2)n1 [Example 87, 5-(4-((1R,2R)-2-(2-(3-fluoro-4-(methylsulfonyl)phenoxy)ethyl)cyclopropyl)piperidin-1-yl)-3-isopropyl-1,2,4-oxadiazole]",11 nM
5,"CC(C)c1noc(N2CCC([C@@H]3C[C@H]3CCOc3ccc(N4CCNC4=O)cc3F)CC2)n1 [Example 88, 1-(3-fluoro-4-(2-((1S,2S)-2-(1-(3-isopropyl-1,2,4-oxadiazol-5-yl)piperidin-4-yl)cyclopropyl)ethoxy)phenyl)imidazolidin-2-one]",18 nM
6,"COCc1noc(N2CCC([C@@H]3C[C@H]3CCOc3ccc(-n4cnnn4)cc3F)CC2)n1 [Example 89, 5-(4-((1S,2S)-2-(2-(2-fluoro-4-(1H-tetrazol-1-yl)phenoxy)ethyl)cyclopropyl)piperidin-1-yl)-3-(methoxymethyl)-1,2,4-oxadiazole]",23 nM
7,"COCc1noc(N2CCC([C@H]3C[C@@H]3CCOc3ccc(-n4cnnn4)cc3F)CC2)n1 [Example 90, 5-(4-((1R,2R)-2-(2-(2-fluoro-4-(1H-tetrazol-1-yl)phenoxy)ethyl)cyclopropyl)piperidin-1-yl)-3-(methoxymethyl)-1,2,4-oxadiazole]",20 nM
8,"COCc1noc(N2CCC([C@@H]3C[C@H]3CCOc3ccc(CC(=O)N4CCC4)c(F)c3)CC2)n1 [Example 91, 1-(azetidin-1-yl)-2-(2-fluoro-4-(2-((1S,2S)-2-(1-(3-(methoxymethyl)-1,2,4-oxadiazol-5-yl)piperidin-4-yl)cyclopropyl)ethoxy)phenyl)ethanone]",19 nM
9,"CCS(=O)(=O)c1ccc(OCC[C@H]2C[C@@H]2C2CCN(c3nc(C(C)C)no3)CC2)c(F)c1 [Example 92, 5-(4-((1R,2R)-2-(2-(4-(ethylsulfonyl)-2-fluorophenoxy)ethyl)cyclopropyl)piperidin-1-yl)-3-isopropyl-1,2,4-oxadiazole]",13 nM
10,"COCc1noc(N2CCC([C@H]3C[C@@H]3CCOc3ccc(CC(=O)N(C)C)c(F)c3)CC2)n1 [Example 93, 2-(2-fluoro-4-(2-((1R,2R)-2-(1-(3-(methoxymethyl)-1,2,4-oxadiazol-5-yl)piperidin-4-yl)cyclopropyl)ethoxy)phenyl)-N,N-dimethylacetamide]",18 nM
11,"CC1(OC(=O)N2CCC([C@@H]3C[C@H]3CCOc3ccc(S(C)(=O)=O)c(F)c3)CC2)CC1 [Example 94, 1-methylcyclopropyl 4-((1S,2S)-2-(2-(3-fluoro-4-(methylsulfonyl)phenoxy)ethyl)cyclopropyl)piperidine-1-carboxylate]",23 nM
12,"CC1(OC(=O)N2CCC([C@H]3C[C@@H]3CCOc3ccc(CC(=O)N4CCC4)c(F)c3)CC2)CC1 [Example 95, 1-methylcyclopropyl 4-((1R,2R)-2-(2-(4-(2-(azetidin-1-yl)-2-oxoethyl)-3-fluorophenoxy)ethyl)cyclopropyl)piperidine-1-carboxylate]",2.6 nM
13,"CC1(OC(=O)N2CCC([C@@H]3C[C@H]3CCOc3ccc(-n4cnnn4)cc3F)CC2)CC1 [Example 96, 1-methylcyclopropyl 4-((1S,2S)-2-(2-(2-fluoro-4-(1H-tetrazol-1-yl)phenoxy)ethyl)cyclopropyl)piperidine-1-carboxylate]",8.2 nM
14,"CC1(OC(=O)N2CCC([C@@H]3C[C@H]3CCOc3ccc(CC(=O)N4CCC4)c(F)c3)CC2)CC1 [Example 97, 1-methylcyclopropyl 4-((1S,2S)-2-(2-(4-(2-(azetidin-1-yl)-2-oxoethyl)-3-fluorophenoxy)ethyl)cyclopropyl)piperidine-1-carboxylate]",4.2 nM
15,"CC1(OC(=O)N2CCC([C@H]3C[C@@H]3CCOc3ccc(CC(=O)N4CCC4)cc3F)CC2)CC1 [Example 98, 1-methylcyclopropyl 4-((1R,2R)-2-(2-(4-(2-(azetidin-1-yl)-2-oxoethyl)-2-fluorophenoxy)ethyl)cyclopropyl)piperidine-1-carboxylate]",6.3 nM
16,"CN(C)C(=O)Cc1ccc(OCC[C@@H]2C[C@H]2C2CCN(C(=O)OC3(C)CC3)CC2)cc1F [Example 99, 1-methylcyclopropyl 4-((1S,2S)-2-(2-(4-(2-(dimethylamino)-2-oxoethyl)-3-fluorophenoxy)ethyl)cyclopropyl)piperidine-1-carboxylate]",8.8 nM
17,"CN(C)C(=O)Cc1ccc(OCC[C@H]2C[C@@H]2C2CCN(C(=O)OC3(C)CC3)CC2)cc1F [Example 100, 1-methylcyclopropyl 4-((1R,2R)-2-(2-(4-(2-(dimethylamino)-2-oxoethyl)-3-fluorophenoxy)ethyl)cyclopropyl)piperidine-1-carboxylate]",5.5 nM
18,"CC1(OC(=O)N2CCC([C@@H]3C[C@H]3CCOc3cc(F)c(CC(=O)N4CCC4)c(F)c3)CC2)CC1 [Example 101, 1-methylcyclopropyl 4-((1S,2S)-2-(2-(4-(2-(azetidin-1-yl)-2-oxoethyl)-3,5-difluorophenoxy)ethyl)cyclopropyl)piperidine-1-carboxylate]",2 nM
19,"CN(C)C(=O)Cc1c(F)cc(OCC[C@@H]2C[C@H]2C2CCN(C(=O)OC3(C)CC3)CC2)cc1F [Example 102, 1-methylcyclopropyl 4-((1S,2S)-2-(2-(4-(2-(dimethylamino)-2-oxoethyl)-3,5-difluorophenoxy)ethyl)cyclopropyl)piperidine-1-carboxylate]",2.1 nM
20,"CC1(OC(=O)N2CCC([C@H]3C[C@@H]3CCOc3cc(F)c(CC(=O)N4CCC4)c(F)c3)CC2)CC1 [Example 103, 1-methylcyclopropyl 4-((1R,2R)-2-(2-(4-(2-(azetidin-1-yl)-2-oxoethyl)-3,5-difluorophenoxy)ethyl)cyclopropyl)piperidine-1-carboxylate]",0.7 nM
21,"CN(C)C(=O)Cc1c(F)cc(OCC[C@H]2C[C@@H]2C2CCN(C(=O)OC3(C)CC3)CC2)cc1F [Example 104, 1-methylcyclopropyl 4-((1R,2R)-2-(2-(4-(2-(dimethylamino)-2-oxoethyl)-3,5-difluorophenoxy)ethyl)cyclopropyl)piperidine-1-carboxylate]",0.69 nM
22,"CC1(OC(=O)N2CCC([C@@H]3C[C@H]3CCOc3ccc(-n4cnnn4)c(F)c3)CC2)CC1 [Example 105, 1-methylcyclopropyl 4-((1S,2S)-2-(2-(3-fluoro-4-(1H-tetrazol-1-yl)phenoxy)ethyl)cyclopropyl)piperidine-1-carboxylate]",15 nM
